Data on three compounds can be found in US4794174A, “5'deoxy-5'-substituted adenosines” (Southern Research Institute, priority 1987, dated 1988).

The target in test [1] is T1, AdoMet-DC from MRC5 Cells (Homo sapiens, UniProt P17707).
T1 construct: Effect of Compounds on AdoMet-DC from MRC5 Cells; endogenous in cells; host or cells: MRC5 cells (crude enzyme preparation)
T1 sequence (P17707 68-334 limits assumed): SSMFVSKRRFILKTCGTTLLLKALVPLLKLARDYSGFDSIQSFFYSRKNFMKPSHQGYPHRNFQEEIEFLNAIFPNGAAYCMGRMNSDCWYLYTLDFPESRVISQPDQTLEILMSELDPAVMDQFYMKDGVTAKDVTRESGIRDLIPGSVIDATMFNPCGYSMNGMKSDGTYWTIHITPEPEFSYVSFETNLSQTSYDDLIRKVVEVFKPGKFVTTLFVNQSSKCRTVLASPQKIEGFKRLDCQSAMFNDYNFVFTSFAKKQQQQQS
T1 sequence (P17707 1-67 limits assumed): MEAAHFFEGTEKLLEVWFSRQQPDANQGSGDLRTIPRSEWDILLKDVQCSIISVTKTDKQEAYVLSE
Nature of the test: Effect of compounds on AdoMet-DC from MRC5 cells (crude enzyme preparation). Format: biochemical. The note with it: AdoMet 30 μM, read-out: ID50 (the source's name). As to the method: Effect of Compounds on AdoMet-DC from MRC5 Cells
mixture contained AdoMet at a concentration of 30 μM. Each inhibitor
was tested at a series of concentrations.

Test [2] deals with L1210 Cells. Nature of the test: Polyamine levels in L1210 cells treated with 25. The note with it: for Polyamine Content, Putrescine / Polyamine Content, Spermidine / Polyamine Content, Spermine: +100 μM. It is filed as cell-based. From the text:
(§1) Polyamine Levels in L1210 Cells Treated with --25.

Test [3] relates to L1210 Cells. Nature of the test: Cell number of L1210 cells treated with 25. Format: cell-based. The note with it: 96 hrs; +100 μM.
Text: as §1

Another test concerns HCMV. The test is described as follows: In vitro antiviral activity against cytomegalovirus: HCMV yields in MRC5 cell monolayer cultures. It is filed as cell-based. As to the method:
The Effects of --25 on HCMV Yields in MRC5
*Treatment with --25 began 72 hours prior to virus adsorption. Culture
fluids were replaced with fresh drug and medium 24 hours before virus
infection, immediately following virus infection, and 3 days p.i.

Entries after “also recorded” stand apart in the source; their conditions may differ.

Take `CN(CCCNN)C[C@H]1O[C@@H](n2cnc3c(N)ncnc32)[C@H](O)[C@@H]1O` [Compound 25, 5'-Deoxy-5'-[N-methyl-N-(3-hydrazinopropyl)]aminoadenosine sesquisulfate 1.8H2 O.0.1EtOH]: the IC50 in test [1] was determined as 8 nM. Besides, the results for the “Polyamine Content, Putrescine” value in the test on L1210 Cells [2] (24 hrs), in the test on L1210 Cells [2] (48 hrs) and in the test with L1210 Cells [2] (96 hrs) were 3.16 umol/10^6 Cells, 4.91 umol/10^6 Cells and 5.69 umol/10^6 Cells, respectively. Besides, the “Polyamine Content, Spermidine” value with L1210 Cells [2] (24 hrs) was determined as 0.58 umol/10^6 Cells; with L1210 Cells [2] (48 hrs), 0.78 umol/10^6 Cells; with L1210 Cells [2] (96 hrs) it was 0.65 umol/10^6 Cells. Besides, the results for the “Polyamine Content, Spermine” value in the test on L1210 Cells [2] (24 hrs), in the test with L1210 Cells [2] (48 hrs) and in the test with L1210 Cells [2] (96 hrs) were 0.20 umol/10^6 Cells, 0.16 umol/10^6 Cells and 0.19 umol/10^6 Cells, respectively. For the same compound, the “effect on spermidine, spermine and putrescine levels” value in the test on L1210 Cells [2] (in words, Table 4) is “decrease in spermidine and spermine levels; also recorded: increase in putrescine levels”. Besides, the “Cell Number × 10^-5 per mL” value with L1210 Cells [3] is 17 × 10^-5 per mL. Moreover, the “CMV Yield (PFU/ml)” value is listed as 5.8 PFU/ml with HCMV (3.2 μM); 5.8 PFU/ml in the test with HCMV (10 μM); 5.8 PFU/ml in the test on HCMV (32 μM); 5.6 PFU/ml in the test with HCMV (100 μM); 5.1 PFU/ml with HCMV (320 μM); 2.2 PFU/ml in the test with HCMV (1000 μM). Also, the “CMV Yield (log10 PFU/ml)” value in the test with HCMV (3.2 μM) is 5.8 × 10^5 log10 PFU/ml; in the test with HCMV (10 μM), 6.3 × 10^5 log10 PFU/ml; in the test on HCMV (32 μM), 5.8 × 10^5 log10 PFU/ml; with HCMV (100 μM), 4.2 × 10^5 log10 PFU/ml; in the test on HCMV (320 μM), 1.2 × 10^5 log10 PFU/ml; with HCMV (1000 μM), 1.4 × 10^2 log10 PFU/ml. Further, the inhibition at 10 µM with HCMV (Human betaherpesvirus 5, MRC5, 10 μM, read-out: Reduction (%) of CPE at Time of Virus Harvest) came out at 0%. Moreover, the inhibition at 100 µM in the test on HCMV (Human betaherpesvirus 5, MRC5, 100 μM, read-out: Reduction (%) of CPE at Time of Virus Harvest) turned out to be 0%. For the same compound, the inhibition at 320 µM in the test on HCMV (Human betaherpesvirus 5, MRC5, 320 μM, read-out: Reduction (%) of CPE at Time of Virus Harvest) came to 0%.

For `CN(CCNC(=O)NN)C[C@H]1O[C@@H](n2cnc3c(N)ncnc32)[C@H](O)[C@@H]1O` [Compound 16, 5'-Deoxy-5'-[N-methyl-N-[2-(hydrazinecarboxamido)ethyl]aminoadenosine, sesquisulfate dihydrate], the IC50 in test [1] was found to be 600 nM.

As for `CN(CCCNC(=S)NN)C[C@H]1O[C@@H](n2cnc3c(N)ncnc32)[C@@H]2OC(C)(C)O[C@@H]21` [Compound 22, 2',3'-O-Methylethylidene-5'-deoxy-5'-[N-methyl-N-[3-(hydrazinethiocarboxamido)propyl]]aminoadenosine], the IC50 in test [1] turned out to be 1800 nM.
